From patent US20160346249A1 (priority 2012, published 2016)
Values joined by “and” are separate entries in the source; they are usually repeats but may differ in a detail not shown here. Equal entries are not always repeated.

How the values were obtained:
[1] = 12-month dog toxicity and toxicokinetic study; type: in vivo; settings: dog, in vivo
Description: Blood samples were collected on Days 0, 91, 181, 268 and 358 from up to 4 animals/gender/group. Plasma samples collected on Days 91, 181, 268, as well as all plasma samples collected from the control group were not evaluated.
For toxicology assessment four dogs of each gender were included in each group. Assessments included clinical observations, body weight, and food consumption measures which were recorded periodically during the study. Ophthalmic examinations were performed during Weeks 1, 12, 25, 38, 51, and 55 (recovery period). Electrocardiograms were recorded during Weeks 2, 12, 25, 38, and 51. Clinical pathology evaluations (hematology, serum chemistry, and urinalysis) were performed during Weeks 1, 12, 25, 38, 52, and 56 (recovery period). At termination, complete necropsies were performed on all dogs and selected organs were weighed. Selected tissues from the control and 20 (15) mg/kg/day group animals and animals euthanized in extremis were examined microscopically. Sections of livers from dogs in the control and 20 (15) mg/kg/day groups were collected at both the primary and 4-week post-treatment recovery necropsies for assessment of drug metabolism enzyme (microsomal cytochrome P450) activity.

[2] = Single dose 300 mg / 450 mg pharmacokinetic, safety and tolerability study in healthy male and female subjects; settings: for Cmax / half-life / Tmax / AUC(0-t) / concentration at 0 h / concentration at 0.5 h / concentration at 1 h / concentration at 2 h / concentration at 3 h / concentration at 4 h / concentration at 6 h / concentration at 8 h / concentration at 10 h / concentration at 12 h / concentration at 18 h / concentration at 24 h / concentration at […]: human, plasma
Description: Fourteen subjects, divided equally between males and females, were enrolled in the study and randomized between test article (5/sex) and placebo (2/sex). […] All subjects met the inclusion and exclusion criteria for entry into the study as detailed in the protocol and signed an informed consent form.
The subjects were confined to the clinical study site from Day −1 to the morning of Day 2, when they underwent a brief physical examination, clinical laboratory tests, and a physician visit before they were discharged. On Day 7, they reported to the clinical site again and were confined to the site until the morning of Day 9. At that time, they underwent a complete physical examination, clinical laboratory tests, and a physician's visit before they were discharged from the study. All subjects were fasted overnight on Days −1 and 7 from approximately 22:00 to approximately 4 hours post-dose on Days 1 and 8, at which time they received a standard lunch.
Subjects that received the placebo (2/sex) ingested six identical looking capsules with no drug. […] Capsules on both days were ingested with 240 mL water. […] Samples were collected into lithium heparin-containing Vacutainers® and centrifuged at approximately 3000 rpm to obtain the plasma fraction. The plasma was split into two polypropylene tubes and stored at −20° C. […] The urine volumes were recorded and an aliquot was stored for drug concentration measurements.
Validated LC/MS/MS assays were used for analyses; the assay range for both analytes in plasma and urine were 5.00 to 2000 ng/mL.
Plasma concentration-time data for each subject were analyzed with WinNonlin, version 4.1 (Pharsight Corporation, Mountain View, Calif.) using a non-compartmental model. […] Plasma concentrations listed as not detected (ND) or below the lower limit of quantitation (LLOQ) were set to zero. The values of Cmax and Tmax were the observed values for each subject. AUC0-t was determined using the linear trapezoidal rule whenever the concentration data were increasing and the logarithmic trapezoidal rule any time that the concentration data were decreasing. The apparent λz was calculated as the negative slope of the log-linear terminal portion of the blood concentration-time curve using linear regression. To allow for accurate calculation of λz, a minimum of three observations, selected by WinNonlin, was used. The t½ was calculated as ln 2/λz. AUC0-t was extrapolated to infinity (AUC0-∞) as follows: AUC0-∞=AUC0-t+Clast/λz where Clast is the last quantifiable concentration. The apparent oral clearance (CL/F) was calculated as Dose/AUC0-∞. The apparent oral volume of distribution (Vz/F) was calculated as Dose/λz×AUC0-∞. The mean residence time from time zero to infinity (MRT0-∞) was calculated as AUMC0-∞/AUC0-∞.

O=C1NCC2(c3ccc(Cl)c(Cl)c3)CC12 (stereo not drawn) [EB-10101, 5-(3,4-dichloro-phenyl)-3-aza-bicyclo[3.1.0]hexan-2-one]
AUC0-24 of metabolite relative to parent drug, any individual animal [1]: ≤ 3.5 fold
AUC24-∞ as share of total exposure ([2]; 300 mg): 38%
concentration at 24 hr as % of Cmax ([2]; 300 mg): 50%
ingested dose in urine as lactam (0-24 hr) ([2]; 300 mg): 0.075%
AUC24-∞ as share of total exposure ([2]; 450 mg): 54%
concentration at 24 hr as % of Cmax ([2]; 450 mg): 65%
ingested dose in urine as lactam (0-24 hr) ([2]; 450 mg): 0.067%
Cmax ([2]; both, oral, 300 mg): 2030 ng/mL
half-life ([2]; both, oral, 300 mg, harmonic mean of half-life of lactam): 14.3 h
Cmax ([2]; both, oral, 450 mg): 2950 ng/mL
Tmax ([2]; both, oral, 450 mg): 7.8 to 9 h
half-life ([2]; both, oral, 450 mg, harmonic mean of half-life of lactam): 19.8 h
AUC(0-t) ([2]; both, po, 300 mg): 33300 ng·h/mL
Cmax ([2]; both, po, 300 mg): 2030 ng/mL
Tmax ([2]; both, po, 300 mg): 7.8 h
concentration at 0 h ([2]; both, po, 300 mg): 0 ng/mL
concentration at 0.5 h ([2]; both, po, 300 mg): 42.8 ng/mL
concentration at 1 h ([2]; both, po, 300 mg): 296 ng/mL
concentration at 2 h ([2]; both, po, 300 mg): 900 ng/mL
concentration at 3 h ([2]; both, po, 300 mg): 1410 ng/mL
concentration at 4 h ([2]; both, po, 300 mg): 1540 ng/mL
concentration at 6 h ([2]; both, po, 300 mg): 1690 ng/mL
concentration at 8 h ([2]; both, po, 300 mg): 1900 ng/mL
concentration at 10 h ([2]; both, po, 300 mg): 1830 ng/mL
concentration at 12 h ([2]; both, po, 300 mg): 1580 ng/mL
concentration at 18 h ([2]; both, po, 300 mg): 1390 ng/mL
concentration at 24 h ([2]; both, po, 300 mg): 1010 ng/mL
concentration at […] ([2]; both, po, 300 mg): 1.52 ng/mL and 175 ng/mL and 473 ng/mL and 589 ng/mL
half-life ([2]; both, po, 300 mg, t½ (Harmonic mean), single oral 300 mg DOV 21,947 HCl IR, N = 10): 14.3 h
half-life ([2]; both, po, 300 mg, t½, single oral 300 mg DOV 21,947 HCl IR, arithmetic mean, N = 10): 15.4 h
AUC(0-t) ([2]; both, po, 450 mg): 50700 ng·h/mL
Cmax ([2]; both, po, 450 mg): 2950 ng/mL
Tmax ([2]; both, po, 450 mg): 9 h
concentration at 0 h ([2]; both, po, 450 mg): 0 ng/mL
concentration at 0.5 h ([2]; both, po, 450 mg): 71 ng/mL
concentration at 1 h ([2]; both, po, 450 mg): 337 ng/mL
concentration at 2 h ([2]; both, po, 450 mg): 1330 ng/mL
concentration at 3 h ([2]; both, po, 450 mg): 1820 ng/mL
concentration at 4 h ([2]; both, po, 450 mg): 2160 ng/mL
concentration at 6 h ([2]; both, po, 450 mg): 2520 ng/mL
concentration at 8 h ([2]; both, po, 450 mg): 2670 ng/mL
concentration at 10 h ([2]; both, po, 450 mg): 2770 ng/mL
concentration at 12 h ([2]; both, po, 450 mg): 2620 ng/mL
concentration at 18 h ([2]; both, po, 450 mg): 2010 ng/mL
concentration at 24 h ([2]; both, po, 450 mg): 1920 ng/mL
concentration at […] ([2]; both, po, 450 mg): 0 ng/mL and 184 ng/mL and 646 ng/mL and 807 ng/mL
half-life ([2]; both, po, 450 mg, t½ (Harmonic mean), single oral 450 mg DOV 21,947 HCl IR, N = 10): 19.8 h
half-life ([2]; both, po, 450 mg, t½, single oral 450 mg DOV 21,947 HCl IR, arithmetic mean, N = 10): 32.6 h
AUC(0-t) ([2]; female, po, 300 mg): 37300 ng·h/mL
Cmax ([2]; female, po, 300 mg): 2320 ng/mL
Tmax ([2]; female, po, 300 mg): 9.2 h
concentration at 0 h ([2]; female, po, 300 mg): 0 ng/mL
concentration at 0.5 h ([2]; female, po, 300 mg): 22.8 ng/mL
concentration at 1 h ([2]; female, po, 300 mg): 188 ng/mL
concentration at 2 h ([2]; female, po, 300 mg): 760 ng/mL
concentration at 3 h ([2]; female, po, 300 mg): 1340 ng/mL
concentration at 4 h ([2]; female, po, 300 mg): 1600 ng/mL
concentration at 6 h ([2]; female, po, 300 mg): 1870 ng/mL
concentration at 8 h ([2]; female, po, 300 mg): 2210 ng/mL
concentration at 10 h ([2]; female, po, 300 mg): 1980 ng/mL
concentration at 12 h ([2]; female, po, 300 mg): 1760 ng/mL
concentration at 18 h ([2]; female, po, 300 mg): 1690 ng/mL
concentration at 24 h ([2]; female, po, 300 mg): 1190 ng/mL
concentration at […] ([2]; female, po, 300 mg): 0 ng/mL and 111 ng/mL and 317 ng/mL and 426 ng/mL
half-life ([2]; female, po, 300 mg, t½ (Harmonic mean), single oral 300 mg DOV 21,947 HCl IR, N = 5): 15 h
half-life ([2]; female, po, 300 mg, t½, single oral 300 mg DOV 21,947 HCl IR, N = 5, arithmetic mean): 15.5 h
AUC(0-t) ([2]; female, po, 450 mg): 55300 ng·h/mL
Cmax ([2]; female, po, 450 mg): 3360 ng/mL
Tmax ([2]; female, po, 450 mg): 8.8 h
concentration at 0 h ([2]; female, po, 450 mg): 0 ng/mL
concentration at 0.5 h ([2]; female, po, 450 mg): 35.2 ng/mL
concentration at 1 h ([2]; female, po, 450 mg): 285 ng/mL
